Measured values reported in patent US20080096967A1, “Formulations for Injection of Catecholic Butanes, Including Ndga Compounds, Into Animals” (priority 2005, published 2008).

What was measured:
[1] = Solubility of M4N in water-insoluble lipids (visual inspection); type: physicochemical
Procedure: A 10 mL solution of M4N at a concentration of about 50 mg/mL in sesame oil was made as follows. About 10 mL of sesame oil were added to a glass beaker containing a stir bar. The beaker was placed on a magnetic plate and the stir bar was set to stir at medium speed. About 500 mg of M4N were slowly added to the sesame oil in the center of the beaker with the aid of a spatula to prevent M4N from sticking to the beaker wall. The M4N/sesame oil mixture was stirred for about 2 hr or until all M4N had dissolved or was uniformly suspended without any clump being present. The M4N/sesame oil mixture was heated at about 60° C. for about 30 min. (or longer if a larger volume of solution was desired, for example, 1 hr at 60° C. for 500 mL of the M4N/sesame oil mixture), or longer as need to ensure complete dissolution of M4N. […] If crystals formed, the M4N/sesame oil solution could be heated again at 60° C. for about 1 hr, with stirring, on a hot magnetic plate until all M4N was dissolved back in solution. The final M4N/sesame oil solution was stored at room temperature and was kept protected from light.
A 10 mL solution of M4N at a concentration of about 60 mg/mL in 85% sesame oil and 15% Tween® 20 was made as follows. About 8.5 mL of sesame oil were added to a glass beaker containing a stir bar. The beaker was placed on a magnetic plate and the stir bar was set to stir at medium speed. About 1.5 mL of Tween® 20 was slowly added to the center of the beaker. About 600 mg of M4N were slowly added to the sesame oil/Tween® 20 mixture in the center of the beaker with the aid of a spatula to prevent M4N from sticking to the beaker wall. The M4N/sesame oil/Tween® 20 mixture was stirred for about 2 hr or until all M4N had dissolved or was uniformly suspended without any clumps being present. The M4N/sesame oil/Tween® 20 mixture was heated at about 60° C. for about 30 min. (or longer if a larger volume of solution was desired, for example, 1 hr at 60° C. for 500 mL of the M4N/sesame oil/Tween® 20 mixture), or longer as need to ensure complete dissolution of M4N. […]

[2] = as above; type: physicochemical; settings: for solutions stable: corn oil; for stable at room temperature: sesame oil

COc1ccc(C[C@@H](C)[C@@H](C)Cc2ccc(OC)c(OC)c2)cc1OC [Formulation M4N, meso-1,4-bis(3,4-dimethoxyphenyl)-2,3-dimethylbutane]
stable at room temperature ([1]; 89% sesame oil and 11% Tween® 20, M4N 29 mg/mL, dissolved at 60° C.): more than 7 days | Stability Time at Room Temperature ([1]; Sesame Oil and Tween ® 20: 10% Oil emulsion in 90% saline, M4N 2.9 mg/mL): <3 days | stable at room temperature ([1]; sesame oil, M4N 50 mg/mL): less than 1 day | Stability Time at Room Temperature ([2]; 33% Peppermint Oil, 33% Tween ® 20, 33% PEG 400, M4N 60 mg/mL): >3 days | Dissolution After Heating ([2]; 33% Peppermint Oil, 33% Tween ® 20, 33% PEG 400, M4N 60 mg/mL, 40° C.): Y at 40 °C | Dissolution After Heating ([2]; 40% Peppermint Oil, 40% PEG 400, 20% Glycerol, M4N 52 mg/mL, 40° C.): Y at 40 °C | Dissolution After Heating ([2]; 45% Peppermint Oil, 45% PEG 400, 10% Glycerol, M4N 59 mg/mL, 40° C.): Y at 40 °C | Stability Time at Room Temperature ([2]; 50% Peppermint Oil, 50% PEG 300, M4N 40 mg/mL): >7 days | Dissolution After Heating ([2]; 50% Peppermint Oil, 50% PEG 300, M4N 40 mg/mL, 35° C.): Y at 35 °C | Stability Time at Room Temperature ([2]; 50% Peppermint Oil, 50% PEG 300, M4N 60 mg/mL): >7 days | Dissolution After Heating ([2]; 50% Peppermint Oil, 50% PEG 300, M4N 60 mg/mL, 35° C.): Y at 35 °C | Dissolution After Heating ([2]; 50% Peppermint Oil, 50% PEG 300, M4N 125 mg/mL, 35° C.): Y at 35 °C | Stability Time at Room Temperature ([2]; 50% Peppermint Oil, 50% PEG 400, M4N 40 mg/mL): >7 days | Dissolution After Heating ([2]; 50% Peppermint Oil, 50% PEG 400, M4N 40 mg/mL, 40° C.): Y at 40 °C | Stability Time at Room Temperature ([2]; 50% Peppermint Oil, 50% PEG 400, M4N 60 mg/mL): >7 days | Dissolution After Heating ([2]; 50% Peppermint Oil, 50% PEG 400, M4N 60 mg/mL, 40° C.): Y at 40 °C | Dissolution After Heating ([2]; 50% Peppermint Oil, 50% PEG 400, M4N 100 mg/mL, 40° C.): Y at 40 °C | Dissolution After Heating ([2]; 50% Peppermint Oil, 50% PEG 400, M4N 125 mg/mL, 40° C.): Y at 40 °C | Stability Time at Room Temperature ([2]; 50% Peppermint Oil, 50% Sesame Oil, M4N 20 mg/mL): >3 days | Stability Time at Room Temperature ([2]; 50% Peppermint Oil, 50% Sesame Oil, M4N 40 mg/mL): >3 days | Dissolution After Heating ([2]; 50% Peppermint Oil, 50% Sesame Oil, M4N 40 mg/mL, 40° C.): Y at 40 °C | Stability Time at Room Temperature ([2]; 50% Peppermint Oil, 50% Sesame Oil, M4N 60 mg/mL): >3 days | Dissolution After Heating ([2]; 50% Peppermint Oil, 50% Sesame Oil, M4N 60 mg/mL, 40° C.): Y at 40 °C | Stability Time at Room Temperature ([2]; 50% Peppermint Oil, 50% Tween ® 20, M4N 40 mg/mL): >3 days | Dissolution After Heating ([2]; 50% Peppermint Oil, 50% Tween ® 20, M4N 40 mg/mL, 40° C.): Y at 40 °C | Stability Time at Room Temperature ([2]; 50% Peppermint Oil, 50% Tween ® 20, M4N 60 mg/mL): >3 days | Dissolution After Heating ([2]; 50% Peppermint Oil, 50% Tween ® 20, M4N 60 mg/mL, 40° C.): Y at 40 °C | Dissolution After Heating ([2]; 50% Peppermint Oil, 50% Tween ® 20, M4N 125 mg/mL, 40° C.): Y at 40 °C | Stability Time at Room Temperature ([2]; 60% Peppermint Oil, 40% PEG 300, M4N 60 mg/mL): >3 days | Dissolution After Heating ([2]; 60% Peppermint Oil, 40% PEG 300, M4N 60 mg/mL, 40° C.): Y at 40 °C | Dissolution After Heating ([2]; 60% Peppermint Oil, 40% PEG 400, M4N 60 mg/mL, 40° C.): Y at 40 °C | Stability Time at Room Temperature ([2]; 75% Sesame Oil, 9% Tween ® 20, 16% Glycerol, M4N 24.3 mg/mL): <7 days | Dissolution After Heating ([2]; 75% Sesame Oil, 9% Tween ® 20, 16% Glycerol, M4N 24.3 mg/mL, 60° C.): Y at 60 °C | Dissolution After Heating ([2]; 80% Olive Oil, 20% Soybean Oil, M4N 60 mg/mL, 70° C.): Y at 70 °C | Dissolution After Heating ([2]; 85% Sesame Oil, 15% Tween ® 20, M4N 40 mg/mL, 45° C.): Y at 45 °C | Dissolution After Heating ([2]; 85% Sesame Oil, 15% Tween ® 20, M4N 60 mg/mL, 55° C.): Y at 55 °C | solution upon cooling ([2]; 85% sesame oil and 15% Tween® 20, M4N 60 mg/mL (55° C.) and 40 mg/mL (45° C.)): did not stay in solution | Stability Time at Room Temperature ([2]; 89% Sesame Oil, 11% Tween ® 20, M4N 29 mg/mL): >7 days | Dissolution After Heating ([2]; 89% Sesame Oil, 11% Tween ® 20, M4N 29 mg/mL, 60° C.): Y at 60 °C | Stability Time at Room Temperature ([2]; 100% Corn Oil, M4N 1 mg/mL): >3 days | Dissolution After Heating ([2]; 100% Corn Oil, M4N 1 mg/mL, 60° C.): Y at 60 °C | Stability Time at Room Temperature ([2]; 100% Corn Oil, M4N 10 mg/mL): >3 days | Dissolution After Heating ([2]; 100% Corn Oil, M4N 10 mg/mL, 60° C.): Y at 60 °C | Stability Time at Room Temperature ([2]; 100% Corn Oil, M4N 20 mg/mL): <3 days | Dissolution After Heating ([2]; 100% Corn Oil, M4N 20 mg/mL, 60° C.): Y at 60 °C | Stability Time at Room Temperature ([2]; 100% Corn Oil, M4N 40 mg/mL): <3 days | Dissolution After Heating ([2]; 100% Corn Oil, M4N 40 mg/mL, 60° C.): Y at 60 °C | Stability Time at Room Temperature ([2]; 100% Corn Oil, M4N 50 mg/mL): <3 days | Dissolution After Heating ([2]; 100% Corn Oil, M4N 50 mg/mL, 60° C.): Y at 60 °C | Stability Time at Room Temperature ([2]; 100% Corn Oil, M4N 60 mg/mL): <1 days | Dissolution After Heating ([2]; 100% Corn Oil, M4N 60 mg/mL, 60° C.): Y at 60 °C | Dissolution After Heating ([2]; 100% Corn Oil, M4N 100 mg/mL, 60° C.): Y at 60 °C | Stability Time at Room Temperature ([2]; 100% Mineral Oil, M4N 10 mg/mL): >7 days | Dissolution After Heating ([2]; 100% Mineral Oil, M4N 10 mg/mL, 60° C.): Y at 60 °C | Stability Time at Room Temperature ([2]; 100% Mineral Oil, M4N 50 mg/mL): <1 days | Dissolution After Heating ([2]; 100% Mineral Oil, M4N 50 mg/mL, 60° C.): Y at 60 °C | Dissolution After Heating ([2]; 100% Mineral Oil, M4N 100 mg/mL, 60° C.): Y at 60 °C | Dissolution After Heating ([2]; 100% Mineral Oil, M4N 200 mg/mL, 60° C.): Y at 60 °C | Dissolution After Heating ([2]; 100% Olive Oil, M4N 30 mg/mL, 60° C.): Y at 60 °C | Stability Time at Room Temperature ([2]; 100% Sesame Oil, M4N 10 mg/mL): >3 days | Stability Time at Room Temperature ([2]; 100% Sesame Oil, M4N 20 mg/mL): >3 days | Dissolution After Heating ([2]; 100% Sesame Oil, M4N 20 mg/mL, 60° C.): Y at 60 °C | Stability Time at Room Temperature ([2]; 100% Sesame Oil, M4N 30 mg/mL): <3 days | Dissolution After Heating ([2]; 100% Sesame Oil, M4N 30 mg/mL, 60° C.): Y at 60 °C | Stability Time at Room Temperature ([2]; 100% Sesame Oil, M4N 50 mg/mL): <1 days | Dissolution After Heating ([2]; 100% Sesame Oil, M4N 50 mg/mL, 60° C.): Y at 60 °C | Stability Time at Room Temperature ([2]; 100% Soybean Oil, M4N 10 mg/mL): >7 days | Dissolution After Heating ([2]; 100% Soybean Oil, M4N 10 mg/mL, 60° C.): Y at 60 °C | Dissolution After Heating ([2]; 100% Soybean Oil, M4N 30 mg/mL, 60° C.): Y at 60 °C | Dissolution After Heating ([2]; 100% Soybean Oil, M4N 50 mg/mL, 60° C.): Y at 60 °C | Stability Time at Room Temperature ([2]; Peppermint Oil, M4N 1 mg/mL): >3 days | Stability Time at Room Temperature ([2]; Peppermint Oil, M4N 10 mg/mL): >3 days | Stability Time at Room Temperature ([2]; Peppermint Oil, M4N 20 mg/mL): >3 days | Stability Time at Room Temperature ([2]; Peppermint Oil, M4N 40 mg/mL): >3 days | Dissolution After Heating ([2]; Peppermint Oil, M4N 40 mg/mL, 40° C.): Y at 40 °C | Stability Time at Room Temperature ([2]; Peppermint Oil, M4N 60 mg/mL): <3 days | Dissolution After Heating ([2]; Peppermint Oil, M4N 60 mg/mL, 40° C.): Y at 40 °C | Stability Time at Room Temperature ([2]; Peppermint Oil, M4N 100 mg/mL): <1 days | Dissolution After Heating ([2]; Peppermint Oil, M4N 100 mg/mL, 40° C.): Y at 40 °C | Stability Time at Room Temperature ([2]; Peppermint Oil, M4N 125 mg/mL): <1 days | Dissolution After Heating ([2]; Peppermint Oil, M4N 125 mg/mL, 40° C.): Y at 40 °C | Stability Time at Room Temperature ([2]; Sesame Oil, Tween ® 20 and Glycerol: 10% Oil emulsion in 90% saline, M4N 2.4 mg/mL): <1 days | solutions stable ([2]; M4N 60 mg/mL): less than 1 day | solutions stable ([2]; M4N 1 and 10 mg/mL): greater than 3 days | solutions stable ([2]; M4N 20, 40 and 50 mg/mL): less than 3 days | solution after cooling ([2]; olive oil, M4N 30 mg/mL, soluble at 60° C.): did not remain in solution after cooling | stable at room temperature ([2]; M4N 10 mg/mL and 20 mg/mL): more than 3 days | stable at room temperature ([2]; M4N 30 mg/mL): less than 3 days
